Assay results taken from ChEMBL document CHEMBL3885861, “Open TG-GATES”.

Species on record: Rattus norvegicus
Experiment: Open TG-GATES - Regimen: Daily Repeat
Type: toxicity, organism-based, Sprague-Dawley
Parameters: regimen Daily Repeat, gender Male, age 6 weeks
Conditions: in vivo, po, 30 mg/kg, route gavage, dose level Middle; for APTT / Bas / Eos / Fbg / Hb / Ht / Lym / MCH / MCHC / MCV / Mono / Neu / Plat / RBC / Ret / WBC: tissue Blood; for KIDNEY_L / KIDNEY_R / KIDNEY_TOTAL: tissue Kidney; for ALP / ALT / AST / BUN / CRE / DBIL / GLC / IP / K / LDH / Na / PL / RALB / TBIL / TC / TG / TP / gamma-GTP: tissue Plasma

## CN(C)CCC=C1c2ccccc2COc2ccccc21 [DOXEPIN]
72 h, time 3 day
  TERMINAL_BW: 221 g
  APTT: 16.8 s
  Bas: 0%
  Eos: 0.8%
  Fbg: 336.2 mg/dL
  Hb: 13 g/dL
  Ht: 37.8%
  Lym: 73.4%
  MCH: 21.6 pg
  MCHC: 34.4%
  MCV: 62.9 fL
  Mono: 2.8%
  Neu: 22.6%
  Plat: 113.6 x10_4/uL
  RBC: 600.6 x10_4/ul
  Ret: 6.9%
  WBC: 66.4 x10_2/uL
  KIDNEY_L: 1 g
  KIDNEY_R: 1 g
  KIDNEY_TOTAL: 2 g
  ALP: 1714.2 IU/L
  ALT: 50 IU/L
  AST: 75 IU/L
  BUN: 15 mg/dL
  CRE: 0.2 mg/dL
  DBIL: 0.018 mg/dL
  GLC: 193.6 mg/dL
  IP: 7.3 mg/dL
  K: 4.5 meq/L
  LDH: 94 IU/L
  Na: 142.2 meq/L
  PL: 147.6 mg/dL
  RALB: 2.7 g/dL
  TBIL: 0.032 mg/dL
  TC: 81.2 mg/dL
  TG: 97 mg/dL
  TP: 5.9 g/dL
  gamma-GTP: 1.2 IU/L
[…], time 7 day
  TERMINAL_BW: 252.6 g
  APTT: 18.3 s
  Bas: 0%
  Eos: 1%
  Fbg: 293.4 mg/dL
  Hb: 13.4 g/dL
  Ht: 38.2%
  Lym: 81.4%
  MCH: 21.5 pg
  MCHC: 35.1%
  MCV: 61.2 fL
  Mono: 2.6%
  Neu: 14.4%
  Plat: 115.8 x10_4/uL
  RBC: 624.8 x10_4/ul
  Ret: 5.8%
  WBC: 90.6 x10_2/uL
  KIDNEY_L: 1 g
  KIDNEY_R: 1 g
  KIDNEY_TOTAL: 2.1 g
  ALP: 1770.4 IU/L
  ALT: 48 IU/L
  AST: 72.6 IU/L
  BUN: 17.4 mg/dL
  CRE: 0.2 mg/dL
  DBIL: 0.018 mg/dL
  GLC: 191.2 mg/dL
  IP: 7.2 mg/dL
  K: 4.3 meq/L
  LDH: 76.2 IU/L
  Na: 142 meq/L
  PL: 145.4 mg/dL
  RALB: 2.7 g/dL
  TBIL: 0.034 mg/dL
  TC: 75.8 mg/dL
  TG: 106.4 mg/dL
  TP: 5.7 g/dL
  gamma-GTP: 1.4 IU/L
[…], time 14 day
  TERMINAL_BW: 310 g
  APTT: 16.2 s
  Bas: 0%
  Eos: 1%
  Fbg: 310.4 mg/dL
  Hb: 14 g/dL
  Ht: 40.7%
  Lym: 77.2%
  MCH: 20.9 pg
  MCHC: 34.5%
  MCV: 60.6 fL
  Mono: 2.4%
  Neu: 18.8%
  Plat: 101.5 x10_4/uL
  RBC: 671.4 x10_4/ul
  Ret: 4.6%
  WBC: 80.3 x10_2/uL
  KIDNEY_L: 1.2 g
  KIDNEY_R: 1.2 g
  KIDNEY_TOTAL: 2.4 g
  ALP: 1433.6 IU/L
  ALT: 42.8 IU/L
  AST: 69 IU/L
  BUN: 18.8 mg/dL
  CRE: 0.2 mg/dL
  DBIL: 0.014 mg/dL
  GLC: 191.4 mg/dL
  IP: 6.8 mg/dL
  K: 4.1 meq/L
  LDH: 69.6 IU/L
  Na: 142.8 meq/L
  PL: 148.6 mg/dL
  RALB: 2.7 g/dL
  TBIL: 0.026 mg/dL
  TC: 71.4 mg/dL
  TG: 153.8 mg/dL
  TP: 6 g/dL
  gamma-GTP: 1 IU/L
[…], time 28 day
  TERMINAL_BW: 397.6 g
  APTT: 18 s
  Bas: 0%
  Eos: 1.4%
  Fbg: 282 mg/dL
  Hb: 14.9 g/dL
  Ht: 42%
  Lym: 79%
  MCH: 19.7 pg
  MCHC: 35.4%
  MCV: 55.8 fL
  Mono: 2.6%
  Neu: 16.4%
  Plat: 112.2 x10_4/uL
  RBC: 754.2 x10_4/ul
  Ret: 2.4%
  WBC: 93.4 x10_2/uL
  KIDNEY_L: 1.4 g
  KIDNEY_R: 1.3 g
  KIDNEY_TOTAL: 2.7 g
  ALP: 1369.6 IU/L
  ALT: 43.6 IU/L
  AST: 67.2 IU/L
  CRE: 0.2 mg/dL
  DBIL: 0.022 mg/dL
  GLC: 185 mg/dL
  IP: 6.1 mg/dL
  K: 4.1 meq/L
  LDH: 81.4 IU/L
  Na: 143.6 meq/L
  PL: 140.6 mg/dL
  RALB: 2.8 g/dL
  TBIL: 0.034 mg/dL
  TC: 66 mg/dL
  TG: 166.4 mg/dL
  TP: 6.2 g/dL
  gamma-GTP: 1.4 IU/L
